These results are taken from publication PMC7248194, “Cell-Based Radiotracer Binding and Uptake Inhibition Assays: A Comparison of In Vitro Methods to Assess the Potency of Drugs That Target Monoamine Transporters” (Frontiers in Pharmacology, 2020).

In one series the target is T1, hSERT (Homo sapiens, UniProt P31645).
T1 construct: gene SLC6A4; full-length, stably expressed in HEK 293 cells (Basel, 'cell line 2')
In words: [3H]-CFT saturation binding, adherent HEK […] cells. The series is classed as cell-based. The settings on record: read-out: Kd ± SD.

In the next series the target is T2, rNET (Rattus norvegicus, UniProt Q63380).
T2 construct: gene Slc6a2; full-length, stably expressed in HEK 293 cells (Vienna, 'cell line 3')
T2 sequence (Q63380 1-617): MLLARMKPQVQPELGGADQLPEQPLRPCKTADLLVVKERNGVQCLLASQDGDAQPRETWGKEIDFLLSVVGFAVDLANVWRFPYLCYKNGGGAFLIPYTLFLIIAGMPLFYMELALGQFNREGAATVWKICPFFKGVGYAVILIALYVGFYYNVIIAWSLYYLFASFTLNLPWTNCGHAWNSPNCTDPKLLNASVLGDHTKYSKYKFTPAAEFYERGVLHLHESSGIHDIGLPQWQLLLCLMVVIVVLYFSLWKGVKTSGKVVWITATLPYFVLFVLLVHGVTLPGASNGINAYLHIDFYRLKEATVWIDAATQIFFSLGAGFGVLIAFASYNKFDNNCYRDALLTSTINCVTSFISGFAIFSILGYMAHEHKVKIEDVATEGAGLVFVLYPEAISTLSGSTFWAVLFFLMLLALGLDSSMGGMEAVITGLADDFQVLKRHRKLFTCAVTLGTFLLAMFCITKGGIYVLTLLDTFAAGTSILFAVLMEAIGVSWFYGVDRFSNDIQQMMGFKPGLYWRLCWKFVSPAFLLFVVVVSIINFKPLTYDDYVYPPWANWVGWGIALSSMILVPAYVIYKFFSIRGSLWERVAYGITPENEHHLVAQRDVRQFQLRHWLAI
In words: [3H]-CFT saturation binding, adherent HEK […] cells. The series is classed as cell-based. The settings on record: read-out: Kd ± SD.

For another series, the target named is T3, hNET (Homo sapiens, UniProt P23975).
T3 construct: gene SLC6A2; full-length, stably expressed in HEK 293 cells (Basel, 'cell line 2')
T3 sequence (P23975 whole entry): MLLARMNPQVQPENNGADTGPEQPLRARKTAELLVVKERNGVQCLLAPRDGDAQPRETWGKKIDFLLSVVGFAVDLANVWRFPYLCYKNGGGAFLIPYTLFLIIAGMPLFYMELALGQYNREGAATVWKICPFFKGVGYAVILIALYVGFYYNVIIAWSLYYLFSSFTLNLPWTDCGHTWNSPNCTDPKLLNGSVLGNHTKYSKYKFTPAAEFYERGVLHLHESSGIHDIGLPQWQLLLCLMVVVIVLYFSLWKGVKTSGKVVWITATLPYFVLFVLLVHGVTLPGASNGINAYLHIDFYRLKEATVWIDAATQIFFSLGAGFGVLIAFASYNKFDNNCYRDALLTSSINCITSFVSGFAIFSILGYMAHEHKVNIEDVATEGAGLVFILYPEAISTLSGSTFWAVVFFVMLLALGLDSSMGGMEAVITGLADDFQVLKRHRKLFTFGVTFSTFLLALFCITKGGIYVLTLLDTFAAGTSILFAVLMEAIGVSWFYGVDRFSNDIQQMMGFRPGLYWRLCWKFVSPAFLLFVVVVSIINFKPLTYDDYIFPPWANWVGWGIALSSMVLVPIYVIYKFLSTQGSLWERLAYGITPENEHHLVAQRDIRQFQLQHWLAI
As to the kind of experiment: [3H]-CFT saturation binding, adherent HEK […] cells. The settings on record: read-out: Kd ± SD. The format is cell-based.

In series [1] the target is T4, rSERT (Rattus norvegicus, UniProt P31652).
T4 construct: gene Slc6a4; full-length, stably expressed in HEK 293 cells (Vienna, 'cell line 3')
T4 sequence (P31652 whole entry): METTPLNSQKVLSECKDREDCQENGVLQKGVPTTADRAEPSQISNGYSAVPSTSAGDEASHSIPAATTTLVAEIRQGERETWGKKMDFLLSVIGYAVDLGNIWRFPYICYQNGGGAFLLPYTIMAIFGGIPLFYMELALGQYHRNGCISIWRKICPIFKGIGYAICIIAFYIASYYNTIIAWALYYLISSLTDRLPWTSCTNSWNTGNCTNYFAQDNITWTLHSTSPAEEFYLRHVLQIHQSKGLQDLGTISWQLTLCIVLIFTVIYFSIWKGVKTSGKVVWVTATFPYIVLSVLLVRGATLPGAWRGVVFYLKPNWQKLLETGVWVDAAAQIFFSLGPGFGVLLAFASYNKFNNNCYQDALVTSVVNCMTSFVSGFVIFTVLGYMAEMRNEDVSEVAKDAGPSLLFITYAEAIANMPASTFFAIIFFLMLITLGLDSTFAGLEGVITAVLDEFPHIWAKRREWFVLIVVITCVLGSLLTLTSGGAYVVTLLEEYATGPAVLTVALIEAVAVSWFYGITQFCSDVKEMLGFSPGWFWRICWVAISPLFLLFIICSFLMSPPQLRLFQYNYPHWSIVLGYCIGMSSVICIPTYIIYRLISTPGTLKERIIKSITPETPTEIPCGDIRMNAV
As to the kind of experiment: [3H]-CFT saturation binding, adherent HEK […] cells. The format is cell-based. The settings on record: read-out: Kd ± SD.

Series [2] concerns the target T4, rSERT. In words: saturation uptake, adherent HEK […] cells. Particulars: cell line 3; labelled compound, 200 nM [3H]-5-HT diluted with unlabelled; KHB pH 7.3, room temperature, 1 min; read-out: Km ± SD. The series is classed as cell-based.
For another series, the system named is T5, NCCc1c[nH]c2ccc(O)cc12.
T5 construct: full-length, stably expressed in HEK 293 cells (Basel, 'cell line 2')
In words: cells, lysate or membranes. The format is cell-based, Homo sapiens. Particulars: cell line 2, labelled compound, 200 nM [3H]-5-HT diluted with unlabelled, KHB pH 7.3, room temperature, 1 min.

Substrate in series [3]: NCCc1ccc(O)c(O)c1
In words: cells, lysate or membranes. The series is classed as cell-based, Rattus norvegicus. Particulars: cell line 3, labelled compound, 200 nM [3H]-dopamine diluted with unlabelled, KHB pH 7.3, room temperature, 1 min.

Substrate in series [4]: NCCc1ccc(O)c(O)c1
As to the kind of experiment: cells, lysate or membranes. The settings on record: cell line 2, labelled compound, 200 nM [3H]-dopamine diluted with unlabelled, KHB pH 7.3, room temperature, 1 min.

T1 sequence (P31645 whole entry): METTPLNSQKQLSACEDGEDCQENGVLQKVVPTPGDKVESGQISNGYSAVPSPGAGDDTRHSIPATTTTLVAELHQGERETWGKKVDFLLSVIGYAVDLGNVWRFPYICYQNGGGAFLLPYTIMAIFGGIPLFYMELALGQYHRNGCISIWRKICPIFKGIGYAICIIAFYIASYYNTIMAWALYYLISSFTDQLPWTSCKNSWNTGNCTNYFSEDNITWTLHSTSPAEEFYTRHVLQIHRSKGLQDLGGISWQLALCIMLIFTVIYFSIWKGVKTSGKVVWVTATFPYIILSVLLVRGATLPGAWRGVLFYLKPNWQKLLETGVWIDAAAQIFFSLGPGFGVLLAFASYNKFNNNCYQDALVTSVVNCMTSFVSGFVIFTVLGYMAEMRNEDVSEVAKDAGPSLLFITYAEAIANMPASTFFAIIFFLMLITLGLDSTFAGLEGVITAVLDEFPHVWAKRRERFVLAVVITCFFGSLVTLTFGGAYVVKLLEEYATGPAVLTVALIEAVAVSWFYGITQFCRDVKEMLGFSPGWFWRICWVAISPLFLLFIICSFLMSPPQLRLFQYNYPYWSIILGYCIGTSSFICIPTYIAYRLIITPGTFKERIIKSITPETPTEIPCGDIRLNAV

As usually defined, the Kd is the free concentration of one partner at which half of the binding sites on the other are occupied at equilibrium, for simple one-to-one binding. In the case of `COC(=O)[C@H]1[C@@H](c2ccc(F)cc2)C[C@@H]2CC[C@H]1N2C` [CFT, 2-β-carbomethoxy-3-β-(4-fluorophenyl)tropane], the Kd at hSERT stood at 1200 ± 400 nM; at rNET it was 130 ± 70 nM; at hNET, 70 ± 20 nM; at rSERT [1], 1130 ± 70 nM.

Broadly, the Km is the concentration of substrate that gives half-maximal velocity. Turning to `NCCc1c[nH]c2ccc(O)cc12` [5-HT], the Km at rSERT [2] was 3.4 ± 1.5 µM.

For the molecule hSERT (Homo sapiens), the Michaelis constant (Km) in the series with NCCc1c[nH]c2ccc(O)cc12 worked out at 4.1 ± 1.0 µM.

B1: rDAT (Rattus norvegicus) (protein)
chain: MSKSKCSVGPMSSVVAPAKESNAVGPREVELILVKEQNGVQLTNSTLINPPQTPVEAQERETWSKKIDFLLSVIGFAVDLANVWRFPYLCYKNGGGAFLVPYLLFMVIAGMPLFYMELALGQFNREGAAGVWKICPVLKGVGFTVILISFYVGFFYNVIIAWALHYFFSSFTMDLPWIHCNNTWNSPNCSDAHASNSSDGLGLNDTFGTTPAAEYFERGVLHLHQSRGIDDLGPPRWQLTACLVLVIVLLYFSLWKGVKTSGKVVWITATMPYVVLTALLLRGVTLPGAMDGIRAYLSVDFYRLCEASVWIDAATQVCFSLGVGFGVLIAFSSYNKFTNNCYRDAIITTSINSLTSFSSGFVVFSFLGYMAQKHNVPIRDVATDGPGLIFIIYPEAIATLPLSSAWAAVFFLMLLTLGIDSAMGGMESVITGLVDEFQLLHRHRELFTLGIVLATFLLSLFCVTNGGIYVFTLLDHFAAGTSILFGVLIEAIGVAWFYGVQQFSDDIKQMTGQRPNLYWRLCWKLVSPCFLLYVVVVSIVTFRPPHYGAYIFPDWANALGWIIATSSMAMVPIYATYKFCSLPGSFREKLAYAITPEKDHQLVDRGEVRQFTLRHWLLL
notes: full-length, stably expressed in HEK 293 cells (Vienna, 'cell line 3')
Turning to B1, the Michaelis-Menten constant (Km) in series [3] was 8.8 ± 3.9 µM.

B2: hDAT (Homo sapiens) (protein)
chain: MSKSKCSVGLMSSVVAPAKEPNAVGPKEVELILVKEQNGVQLTSSTLTNPRQSPVEAQDRETWGKKIDFLLSVIGFAVDLANVWRFPYLCYKNGGGAFLVPYLLFMVIAGMPLFYMELALGQFNREGAAGVWKICPILKGVGFTVILISLYVGFFYNVIIAWALHYLFSSFTTELPWIHCNNSWNSPNCSDAHPGDSSGDSSGLNDTFGTTPAAEYFERGVLHLHQSHGIDDLGPPRWQLTACLVLVIVLLYFSLWKGVKTSGKVVWITATMPYVVLTALLLRGVTLPGAIDGIRAYLSVDFYRLCEASVWIDAATQVCFSLGVGFGVLIAFSSYNKFTNNCYRDAIVTTSINSLTSFSSGFVVFSFLGYMAQKHSVPIGDVAKDGPGLIFIIYPEAIATLPLSSAWAVVFFIMLLTLGIDSAMGGMESVITGLIDEFQLLHRHRELFTLFIVLATFLLSLFCVTNGGIYVFTLLDHFAAGTSILFGVLIEAIGVAWFYGVGQFSDDIQQMTGQRPSLYWRLCWKLVSPCFLLFVVVVSIVTFRPPHYGAYIFPDWANALGWVIATSSMAMVPIYAAYKFCSLPGSFREKLAYAIAPEKDRELVDRGEVRQFTLRHWLKV
With B2, the Michaelis constant (Km) in series [4] was determined as 5.5 ± 0.8 µM.
